System: BALB/c mice
Experiment: Mouse immunization with OVA plus adjuvant combinations, serum IgG1 / IgG2a
Format: in vivo
Conditions: mice vaccinated with OVA and adjuvant combinations, subcutaneous, booster Day 21; for serum IgG1: FIG. 2; for serum IgG2a: FIG. 3
Protocol: Ability of compounds as vaccine adjuvants are assessed through their ability to induce robust immune responses in mice when administered along with a standard experimental antigen, OVA peptide, and compared the balance of Th1 and Th2 responses from their IgG1a and IgG2a responses as well as the cytokine production in mice. It is very common to see the antibody responses to many adjuvants but it is important to see the cellular responses as well which are used as therapeutic vaccines such as cancer vaccines.
Mouse Immunization: Groups of BALB/c mice were immunized with vaccine formulations wherein OVA (50 μg/dose) is combined with PZ (10 μg/dose), PIC (10 μg/dose), and adjuvant alone or in combination (20 μg/dose). In Trial 1, mice (n=8 per group) were immunized subcutaneously with 100 μl total volume with OVA alone, OVA+PZ/PI/52, OVA+52, or saline. In Trial 2, mice (n=8 per group) were immunized subcutaneously with 200 μl total volume with OVA alone, OVA+52, OVA+PZ+PIC, OVA+52+PZ+PI, OVA+(63+97) nanoparticles, or OVA+(52+63+97)nanoparticles, where the number refers to the compound number. The volume was doubled in Trial 2 because the (63+97)Np's were viscous and required more buffer to be easily injected. Mice received a booster immunization on Day 21. Blood was obtained on day 21, day 35 for both trials and 48 for trial 1 only. Mice were euthanized with isofluorane on Day 35 in Trial 2 and Day 48 in Trial 1. Spleens were isolated on day of euthanization.

SMILES | serum IgG1 | serum IgG2a
CSCC[C@H](NC=O)C(=O)N[C@@H](CC(C)C)C(=O)N[C@@H](Cc1ccccc1)C(=O)NCCNC(=O)[C@H](CCCCN)NC(=O)[C@H](CCCCN)NC(=O)[C@H](CCCCN)NC(=O)[C@H](CO)NC(=O)[C@H](CSCC(COC(=O)CCCCCCCCCCCC(C)C)OC(=O)CCCCCCCCCCCC(C)C)NC(=O)CCCCCCCCCCCC(C)C.Cl.Cl.Cl (stereo partly drawn) [Compound 52, TrilipoCys-Ser-Lys-Lys-Lys-NH—CH2-CH2-NH-F-L-Mf] | significant increased production | significant increased production
CC(=O)N[C@@H]1[C@@H](O[C@H](C)C(=O)N[C@@H](C)C(=O)N[C@@H](CCC(=O)O)C(N)=O)[C@H](O)[C@@H](COC(=O)CCCCCCCCCCCC(C)C)O[C@H]1O [Compound 63, (S)-4-((S)-2-((R)-2-(((2R,3R,4R,5S,6R)-3-acetamido-2,5-dihydroxy-6-(((13-methyltetradecanoyl)oxy)methyl)tetrahydro-2H-pyran-4-yl)oxy)propanamido)propanamido)-5-amino-5-oxopentanoic acid] | significant increased production | significant increased production
